Values after ≈ are worked out from the molar mass of the structure shown. “Also recorded” adds a separate entry of the source. Read-outs that look alike come from different tables or passages of the source. Numbered stars: 1 amine (or outer) side, 2 acyl side, 3 side chain; on linkers, the order of the positions; unused ones are H or OH. Bridge positions count the residues as written; N and C are the ends. Square brackets hold non-standard residues; d marks the D form. Side chains are listed from the residue outwards. Peptide text beside a SMILES is read from it. * marks the point of attachment. d(εLys) = N[C@H](CCCCN[*:1])C(=O)[*:2]; εLys = N[C@@H](CCCCN[*:1])C(=O)[*:2]; Fmoc = O=C(OCC1c2ccccc2-c2ccccc21)*; X1 = CC[C@H](C)CCCCC(=O)*; Dab = NCC[C@H](N)C(=O)O
Legend:
[1] = Critical aggregation concentration by ANS fluorescence probe assay; format: physicochemical; settings: emission 486 nm, breakpoint of I/I0 vs log(c/wt %), aqueous solution in ultrapure water, pH 6.5
Method: Fluorescence experiments were carried out as described previously.[35]
To determine the CAC value of individual peptides, the results were plotted as I/I0 versus log(c/wt %), where I indicates the maximum fluorescence intensity of ANS at a given sample concentration and I0 denotes the peak intensity for the ANS solution without peptide.
Critical aggregation concentration (CAC) values of the tripodal peptides were obtained from fluorescence probe assays using 8-anilo-1-naphthalenesulfonic acid (ANS).

[2] = Cryo-TEM imaging of self-assembled nanostructure; format: physicochemical; settings: 1 wt % aqueous solutions, above CAC
Method: Imaging was carried out as described previously.[35],[75]
To examine the morphology of the self-assembled nanostructure of these three arm trifunctional peptides, cryo-TEM imaging was performed for 1 wt % solutions, above the measured CAC values. […] In many cases, these structures are deposited on the lacey carbon grid in preference to, or in addition to, the vitrified grid holes.

[3] = system: L929 murine fibroblast cells; test: MTT cell viability (cytocompatibility) assay; format: cell-based; settings: L929 murine fibroblasts, after 48 h, n = 3
Method: L929 murine fibroblast cells (ECACC General Cell Collection) were grown in Dulbecco’s modified Eagle’s medium (DMEM) supplemented with 10% fetal bovine serum (FBS), 20 mM HEPES, and 1% GlutaMAX. The cells were maintained at pH 7.4, 37 °C, and 5% CO2 in 25 cm^2 cell culture flasks.
Assays were conducted as described previously.[23]
To be of utility as practical antimicrobials, bioactive molecules must show selective activity compared to their toxicity toward mammalian cells. The cytocompatibility of our peptides was investigated by a cell metabolic activity assay using MTT [3-(4,5-dimethylthiazol-2-yl)-2,5-diphenyltetrazolium bromide] assays using L929 murine fibroblast cell lines.
Figure 6 Cell viability data (with L929 murine fibroblasts) of tripodal peptides: (a) TP, (b) DTP, (c) FTP, and (d) FDTP. The error bar corresponds to the standard deviation of the value from the mean (n = 3, *p < 0.05, **p < 0.01 by performing the Anova statistical test).

[4] = system: E. coli EDL933 bacterial membrane; test: Bacteria live/dead (DMAO/EthD-III) staining, fluorescence microscopy; format: cell-based, Escherichia coli; settings: E. coli EDL933 treated at MBC for 1 h at 37 °C; DMAO green / EthD-III red
Method: Dual staining of peptide-treated bacteria, to detect potential membrane disruption,[80] was performed using a bacteria live/dead staining kit (PromoKine). This process involves incubating samples with fluorescent, nucleic acid dyes (DMAO, green, and EthD-III, red) that, respectively, are either able or unable to cross the bacterial membrane. […] Next, they were incubated with set volumes of both dyes for 15 min at room temperature. Slides were mounted using 5 μL of the stained solution onto glass coverslips and observed under a Nikon Eclipse Ti inverted microscope using a 10× objective. Images of different treatments, including controls were captured and compared.
Figure 8 DMAO/EtD-III stained images showing the peptide effects on the integrity of the bacterial membrane. Fluorescence microscopy was used to visualize DMAO and EtD-III dyes binding to the bacterial DNA. In this experiment, E. coli EDL933 was incubated with peptides at their minimum bactericidal concentration (MBC) for 1 h at 37 °C, followed by staining with a bacteria live/dead staining kit (PromoKine). Cells with disrupted membranes are stained red (EtD-III), while cells with intact membranes are stained green (DMAO).

E. coli EDL933 = test: SEM imaging of peptide-treated bacteria; format: cell-based, Escherichia coli; settings: E. coli EDL933, peptide at MBC (31.25 μg/mL), 1 h at 37 °C
[5] = system: E. coli O157:H7 strain EDL933
[6] = system: Pseudomonas aeruginosa (NCTC 13437), clinical multidrug-resistant isolate
[7] = system: Salmonella enterica serovar Typhimurium; settings: 24 h
Klebsiella aerogenes = settings: 24 h
S. aureus (ATCC 12600) = settings: ATCC 12600, 24 h
[8] = system: human red blood cells (hRBCs); settings: 0.5% (v/v) hRBCs in PBS, peptide 0–0.1 wt %, 1 h, hemoglobin at 414 nm, normalised to 0.1% Triton X-100; mean of three independent experiments
[9] = E. coli O157:H7 EDL933, 24 h incubation, 5 × 10^6 CFU/mL, absorbance 600 nm, mean of three independent experiments
[10] = E. coli O157:H7 EDL933, 24 h incubation, aliquots plated on MHA, no viable colonies
[11] = P. aeruginosa NCTC13437, 24 h incubation, 5 × 10^6 CFU/mL, absorbance 600 nm, mean of three independent experiments
[12] = P. aeruginosa NCTC13437, 24 h incubation, aliquots plated on MHA, no viable colonies

NCCCC[C@@H](NC(=O)[C@@H](CCCCN)NC(=O)[C@H](Cc1ccc(O)cc1)NC(=O)[C@H](CCCCNC(=O)[C@H](Cc1ccc(O)cc1)NC(=O)[C@@H](CCCCN)NC(=O)[C@H](N)CCCCNC(=O)OCC1c2ccccc2-c2ccccc21)NC(=O)[C@H](Cc1ccc(O)cc1)NC(=O)[C@@H](CCCCN)NC(=O)[C@H](N)CCCCNC(=O)OCC1c2ccccc2-c2ccccc21)C(N)=O [FDTP, Fmoc-(kkY)3K] (H-[dK](Fmoc)[dK]YK([Tyr-dK-d(εLys)-Fmoc])Y[dK][dK]-NH2)
Critical aggregation concentration (CAC) [1]: 0.0123 ± 0.003 wt %
Morphology of self-assembled nanostructure (cryo-TEM) [2]: irregular globular aggregates
Cell viability / cytotoxicity (MTT) [3]: death of fibroblasts; also recorded: cytotoxicity at the two highest concentrations studied
Effect on integrity of the bacterial membrane (live/dead staining) [4]: rapid, membrane-targeting effects
Bacterial surface morphology by SEM (E. coli EDL933): Significant disruption of the surface of the bacteria
Bacterial surface morphology by SEM (E. coli EDL933; listed as FTDP): collapsed shapes
MIC [5, 9]: 15.62 µg/mL (≈ 8.45 µM)
MBC [5, 10]: 31.25 µg/mL (≈ 16.9 µM)
MIC [6, 11]: 125 µg/mL (≈ 67.6 µM)
MBC [6, 12]: 250 µg/mL (≈ 135 µM)
MBC [7]: 500 µg/mL (≈ 271 µM)
MIC [7]: 250 µg/mL (≈ 135 µM)
MBC (Klebsiella aerogenes): 62.5 µg/mL (≈ 33.8 µM)
MIC (Klebsiella aerogenes): 62.5 µg/mL (≈ 33.8 µM)
MBC (S. aureus (ATCC 12600)): 62.5 µg/mL (≈ 33.8 µM)
MIC (S. aureus (ATCC 12600)): 31.2 µg/mL (≈ 16.9 µM)
Hemolysis of hRBCs [8]: greater leakage of hRBCs

NCCCC[C@H](NC(=O)[C@H](CCCCN)NC(=O)[C@H](Cc1ccc(O)cc1)NC(=O)[C@H](CCCCNC(=O)[C@H](Cc1ccc(O)cc1)NC(=O)[C@H](CCCCN)NC(=O)[C@@H](N)CCCCN)NC(=O)[C@H](Cc1ccc(O)cc1)NC(=O)[C@H](CCCCN)NC(=O)[C@@H](N)CCCCN)C(N)=O [TP, (KKY)3K] (H-KKYK([Tyr-Lys-Lys])YKK-NH2)
Critical aggregation concentration (CAC) [1]: 0.0065 ± 0.004 wt %
Morphology of self-assembled nanostructure (cryo-TEM) [2]: irregular globular aggregates
Cell viability / cytotoxicity (MTT) [3]: nor do they or reduce the viability of fibroblasts
MIC [5, 9]: > 1000 µg/mL
MBC [5, 10]: > 1000 µg/mL
Hemolysis of hRBCs [8]: did not lyse hRBCs

CC[C@H](C)CCCCC(=O)N[C@@H](CCN)C(=O)N[C@H](C(=O)N[C@@H](CCN)C(=O)N[C@H]1CCNC(=O)[C@H]([C@@H](C)O)NC(=O)[C@H](CCN)NC(=O)[C@H](CCN)NC(=O)[C@H](CC(C)C)NC(=O)[C@@H](Cc2ccccc2)NC(=O)[C@H](CCN)NC1=O)[C@@H](C)O [polymyxin B, reference compound] (X1-[Dab]T[Dab][Dab][Dab][dF]L[Dab][Dab]T; lactam 4-C (inferred); N-terminus assumed)
MBC ([5]; O157:H7, 24 h): 6.25 µg/mL (≈ 5.19 µM)
MIC ([5]; O157:H7, 24 h): 3.12 µg/mL (≈ 2.59 µM)
MBC ([6]; NCTC 13437, 24 h): 25 µg/mL (≈ 20.8 µM)
MIC ([6]; NCTC 13437, 24 h): 6.25 µg/mL (≈ 5.19 µM)
MBC [7]: 12.5 µg/mL (≈ 10.4 µM)
MIC [7]: 6.25 µg/mL (≈ 5.19 µM)
MBC (Klebsiella aerogenes): 6.25 µg/mL (≈ 5.19 µM)
MIC (Klebsiella aerogenes): 3.12 µg/mL (≈ 2.59 µM)
MBC (S. aureus (ATCC 12600)): > 100 µg/mL
MIC (S. aureus (ATCC 12600)): > 100 µg/mL

NCCCC[C@H](NC(=O)[C@H](CCCCN)NC(=O)[C@H](Cc1ccc(O)cc1)NC(=O)[C@H](CCCCNC(=O)[C@H](Cc1ccc(O)cc1)NC(=O)[C@H](CCCCN)NC(=O)[C@@H](N)CCCCNC(=O)OCC1c2ccccc2-c2ccccc21)NC(=O)[C@H](Cc1ccc(O)cc1)NC(=O)[C@H](CCCCN)NC(=O)[C@@H](N)CCCCNC(=O)OCC1c2ccccc2-c2ccccc21)C(N)=O [FTP, Fmoc-(KKY)3K] (H-K(Fmoc)KYK([Tyr-Lys-εLys-Fmoc])YKK-NH2)
Critical aggregation concentration (CAC) [1]: 0.0113 ± 0.005 wt %
Morphology of self-assembled nanostructure (cryo-TEM) [2]: sheet-like structures
Effect on integrity of the bacterial membrane (live/dead staining) [4]: rapid, membrane-targeting effects
MIC [5, 9]: 62.5 µg/mL (≈ 33.8 µM)
MBC [5, 10]: 125 µg/mL (≈ 67.6 µM)
MIC [6, 11]: 125 µg/mL (≈ 67.6 µM)
MBC [6, 12]: 250 µg/mL (≈ 135 µM)
MBC [7]: 500 µg/mL (≈ 271 µM)
MIC [7]: 250 µg/mL (≈ 135 µM)
MBC (Klebsiella aerogenes): 62.5 µg/mL (≈ 33.8 µM)
MIC (Klebsiella aerogenes): 62.5 µg/mL (≈ 33.8 µM)
MBC (S. aureus (ATCC 12600)): 250 µg/mL (≈ 135 µM)
MIC (S. aureus (ATCC 12600)): 125 µg/mL (≈ 67.6 µM)

NCCCC[C@@H](N)C(=O)N[C@H](CCCCN)C(=O)N[C@@H](Cc1ccc(O)cc1)C(=O)NCCCC[C@H](NC(=O)[C@H](Cc1ccc(O)cc1)NC(=O)[C@@H](CCCCN)NC(=O)[C@H](N)CCCCN)C(=O)N[C@@H](Cc1ccc(O)cc1)C(=O)N[C@H](CCCCN)C(=O)N[C@H](CCCCN)C(N)=O [DTP, (kkY)3K] (H-[dK][dK]YK([Tyr-dK-dK])Y[dK][dK]-NH2)
Critical aggregation concentration (CAC) [1]: 0.0069 ± 0.002 wt %
Morphology of self-assembled nanostructure (cryo-TEM) [2]: irregular globular aggregates
Cell viability / cytotoxicity (MTT) [3]: nor do they or reduce the viability of fibroblasts
MIC [5, 9]: 500 µg/mL (≈ 356 µM)
MBC [5, 10]: 1000 µg/mL (≈ 712 µM)
MIC [6, 11]: > 1000 µg/mL
MBC [6, 12]: > 1000 µg/mL
MBC [7]: > 1000 µg/mL
MIC [7]: > 1000 µg/mL
MBC (S. aureus (ATCC 12600)): > 1000 µg/mL
MIC (S. aureus (ATCC 12600)): > 1000 µg/mL
Hemolysis of hRBCs [8]: did not lyse hRBCs

— PMC11752523, “Effect of Chirality and Amphiphilicity on the Antimicrobial Activity of Tripodal Lysine-Based Peptides” (ACS Applied Bio Materials, 2025)
